In patent US4556677A, “Alkane and alkene derivatives and their use” (Farmos Group Ltd., priority 1981, dated 1985):
Counter-ions that a name gives are not always drawn.

Key:
estrogen receptors = biological target: T1, estrogen receptors (Rattus norvegicus, UniProt P06211); test: affinity to estrogen receptors, competition with 3H-labelled 17-β-estradiol (dextran-charcoal method); type: binding; conditions: rat uterus cytosol, Table 1; read-out: Affinity (concentration of compound where 50% competition (inhibition) with 3H-estradiol occurred)
T1 construct: rat uterus cytosol preparation; from tissue; host or cells: rat uterus cytosol
T1 sequence (P06211 1-600): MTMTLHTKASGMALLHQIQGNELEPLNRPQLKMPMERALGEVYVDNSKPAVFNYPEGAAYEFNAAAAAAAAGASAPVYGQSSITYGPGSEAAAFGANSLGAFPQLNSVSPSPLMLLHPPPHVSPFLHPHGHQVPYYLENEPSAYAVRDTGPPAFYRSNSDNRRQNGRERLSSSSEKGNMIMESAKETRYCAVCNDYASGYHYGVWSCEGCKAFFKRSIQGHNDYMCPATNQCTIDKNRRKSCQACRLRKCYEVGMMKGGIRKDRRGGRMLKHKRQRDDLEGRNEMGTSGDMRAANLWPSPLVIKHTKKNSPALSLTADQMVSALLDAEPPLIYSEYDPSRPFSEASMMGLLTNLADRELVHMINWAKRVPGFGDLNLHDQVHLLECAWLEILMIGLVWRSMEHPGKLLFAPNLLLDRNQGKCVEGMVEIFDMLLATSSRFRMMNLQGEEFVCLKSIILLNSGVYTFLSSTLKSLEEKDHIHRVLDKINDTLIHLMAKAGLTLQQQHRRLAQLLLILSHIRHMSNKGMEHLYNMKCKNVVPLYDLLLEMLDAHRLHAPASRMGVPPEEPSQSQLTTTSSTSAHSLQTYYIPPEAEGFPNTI
Description: The affinity to estrogen receptors was determined by the ability of the molecules to compete with ^3 H-labelled 17-β-estradiol in rat uterus cytosol preparation. After incubation, receptor-bound and receptor-unbound ligands were separated by a known dextrancharcoal method. (Korenman, S. G.: "Comparative binding affinity of estrogens and its relation to estrogenic potency". Steroids 13: 163-177, 1969). […] The results in table 1 are shown as follows: | with ^3 H--estradiol occurred

immature mouse uterus [1] = test: estrogenic effect in vivo, immature mouse uterus weight; conditions: for oestrogenic effect, % less than that of oestradiol 0.05 mg/kg: s.c., immature mice; for estrogenic effect (in words): immature mouse uterus weight
Description: (§1) The estrogen-antiestrogen (progesterone-antiprogesterone) effect in vivo was determined as follows:
The estrogenic properties of the molecules were determined by administering the molecules, suspended in sesam oil, subcutaneously to 21 days old immature mice on three consecutive days. The mice were killed on the fourth day and the uterus was weighed. Estradiol (positive control) increases the weight of the uterus. The weight correlates with the estrogenic effect of the molecules.
The estrogenic effect of compounds of the invention as measured by their ability to increase the weight of immature mouse uterus was usually far less than that of oestradiol, the positive control. […] At the dose of 0.5 mg/kg the oestrogenic effect of compound 1, 7 and 8 were respectively 20%, 75% and 83% less and at the dose of 5 mg/kg the oestrogenic effect of compound 2 was 60% less than that of oestradiol 0.05 mg/kg.
(§2) In Table 2 a summary of the oestrogenic/antioestrogenic and progestanic/antiprogestanic effect of some of the compounds can be seen. The percentages refer to increase/reduction in mice uterus weights.

immature mouse uterus [2] = test: antiestrogenic effect in vivo, inhibition of oestradiol induced uterus weight increase in immature mice; conditions: for inhibition of oestradiol induced effect on mouse uterus: 5 mg/kg
Description: as §1
The antiestrogenic effects of the molecules were determined in a similar manner in immature mice. In this case, the ability of the molecules to inhibit estrogen-induced uterus weight increase was investigated, too.
The compound 1 at a dose of 0.5 mg/kg caused a 50% inhibition of oestradiol induced effect on mouse uterus.
as §2

mouse uterus [3] = test: progestanic effect in vivo, reduction of mouse uterus weight; conditions: given alone
Description: as §1
(§3) The (anti)progestanic effects were studied in a similar manners as the estrogenic ones. Medroxyprogesterone acetate, which decreases uterus weight, was used as reference.
(§4) The progestanic and antiprogestanic effects of compounds were measured as described earlier. The compound No. 2 reduced the weight of mouse uterus by 49% compared to control while medroxyprogesterone acetate gave 40% reduction.
as §2

mouse uterus [4] = test: antiprogestanic/synergistic effect in vivo, given together with medroxyprogesterone acetate, mouse uterus weight
Description: as §1, §3, §4, §2

[5] = tested on: MCF-7 human mammary adenocarcinoma cell line; test: anti-tumour effect in vitro, growth of MCF-7 cells (bioluminescence ATP assay); type: cell-based; conditions: Homo sapiens, MCF7; MCF-7, Table 3; read-out: Antitumour effect (IC50 = concentration of compound where 50% inhibition of cell growth could be seen)
Description: The anti-tumour effect was studied in vitro as follows:
The growth of MCF-7 cell line (human mammary adenocarcinoma, known to be estrogen-dependent) was evaluated in the presence or absence of estradiol, medroxyprogesterone acetate or the molecules to be investigated. Combinations of molecule plus estradiol and molecule plus medroxyprogesterone were also studied. The amount of living cells after 4 h, 24 h and 48 h incubations were determined by bioluminescence assay (intracellular ATP determination).
The antitumour effects of the compounds had been tested in vitro against MCF-7 human mammary adenocarcinoma cell line and in vivo against DMBA-induced rat mammary adenocarcinomas and transplantable mammary adenocarcinoma.
In table 3 the antitumour effects of certain compounds can be seen.

[6] = tested on: DMBA-induced rat mammary adenocarcinomas; test: antitumour effect in vivo against DMBA-induced rat mammary adenocarcinomas; conditions: 7.5 mg/kg
Description: (§5) The anti-tumour effect was investigated in vivo against DMBA-induced rat mammary adenocarcinomas and transplantable mammary adenocarcinoma according to the following methods:
Mammary adenocarcinomas were induced by DMBA in 35-40 days old female rats. Treatment with the molecules to be investigated was started after palpable tumours had appeared. Tumour size and numbers of tumours were evaluated twice a week. Tumour sizes in the control group, treated with solvent, were compared with the test groups.
The antitumour effect in vivo against DMBA-induced mammary carcinomas was investigated as described earlier. […] Compound 2 at the dose of 7.5 mg/kg caused a 63% decrease in the size of tumours compared to the control.

[7] = tested on: transplantable rat mammary adenocarcinoma; test: effect on transplantable rat mammary adenocarcinoma; type: in vivo
Source text: as §5
Transplantable rat mammary adenocarcinoma was developed by inoculating pieces of DMBA-induced carcinomas subcutaneously to healthy mature female rats. A tumor which expressed malignant growth was selected for further transplantations.
The effects of compounds mentioned earlier against transplantable rat mammary adenocarcinoma can be seen in table 4.
The figures in table 4 refer to relative sizes compared to controls which is 100.

mouse uterus [8] = test: antiprogestanic/synergistic effect in vivo, given together with medroxyprogesterone acetate, mouse uterus weight; conditions: vs 20% for the acetate alone
[9] = Table 2, 0.5 mg/kg, with oestradiol 0.05 mg/kg
[10] = Table 2, 0.5 mg/kg, with medroxyprogesterone acetate 0.06 mg/kg
[11] = together with medroxyprogesterone acetate

With `CC/C(=C(\c1ccccc1)c1ccc(OCCN(C)C)cc1)C1CCCC1` [Compound 2, (Z)--2-cyclopentyl-1-(p-(N,N--dimethyl-2-amino-ethoxy)phenyl)-1-phenyl-1-butene, hydrochloride] the IC50 (estrogen receptors) was 100 to 10000 nM, the “oestrogenic effect, % less than that of oestradiol 0.05 mg/kg” value (immature mouse uterus [1]; 5 mg/kg) was 60% and the “Given alone: oestrogenic effect (in words)” value (immature mouse uterus [1]; Table 2, 0.5 mg/kg, given alone) was “oestrogenic”. The “estrogenic effect (in words)” value (immature mouse uterus [1]) was “dose dependent”, the “inhibition of oestradiol induced effect on mouse uterus” value (immature mouse uterus [2]) was 50% and the “Given with oestradiol: effect (in words)” value (immature mouse uterus [2]; [9]) was “antioestrogenic”. For the same compound, the “Given with oestradiol: reduction in mice uterus weight” value (immature mouse uterus [2]; [9]) was 36%, the “Given alone: progestanic effect (in words)” value (mouse uterus [3]; Table 2, 0.5 mg/kg) was “progestanic” and the “Given alone: reduction in mice uterus weight” value (mouse uterus [3]; Table 2, 0.5 mg/kg) was 49%. For the same compound, the “reduction of mouse uterus weight compared to control” value (mouse uterus [3]; dose not given) was 49%, the “Given with medroxyprogesterone acetate: effect (in words)” value (mouse uterus [4]; [10]) was “synergistic” and the “Given with medroxyprogesterone acetate: reduction in mice uterus weight” value (mouse uterus [4]; [10]) was 61%. For the same compound, the “antiprogestanic / synergistic effect with medroxyprogesterone acetate (in words)” value (mouse uterus [4]; [11]) was “no antiprogestanic effects but a synergistic effect could be seen”, the IC50 [5] was 5000 to 10000 nM and the “decrease in size of tumours compared to the control” value [6] was 63%. The “relative tumour size compared to controls which is 100” value (shortened to “relative tumour size”) ([7]; 1.0 mg/kg) was 82, the “relative tumour size” value ([7]; 5.0 mg/kg) was 87 and the “relative tumour size” value ([7]; 10.0 mg/kg) was 69.

In the case of `CC/C(=C(\c1ccccc1)c1ccc(OCCN(CC)CC)cc1)C1CCCC1` [Compound 8, (Z)-2-cyclopentyl-1-[p-(N,N-diethyl-2-aminoethoxy)phenyl]-1-phenyl-1-butene], the IC50 (estrogen receptors) is reported as 100 to 1000 nM, the “oestrogenic effect, % less than that of oestradiol 0.05 mg/kg” value (immature mouse uterus [1]; 0.5 mg/kg) is reported as 83% and the “estrogenic effect (in words)” value (immature mouse uterus [1]) is reported as “dose dependent”. The “estrogenic effect at increased doses (in words)” value (immature mouse uterus [1]; increased doses (above 0.05 mg/kg), given alone) was “the estrogenic effect became evident”, the “inhibition of oestradiol induced effect on mouse uterus” value (immature mouse uterus [2]) was 30% and the “Given with oestradiol: reduction in mice uterus weight” value (immature mouse uterus [2]; Table 2, 5 mg/kg, with oestradiol 0.05 mg/kg) was 32%. The “progestanic effect (in words)” value (mouse uterus [3]; 0.05 mg/kg) was “could be considered to be a progestanic one”, the “decrease in uterus weight” value (mouse uterus [3]; 0.05 mg/kg (lowest dose)) was 12% and the “Given with medroxyprogesterone acetate: reduction in mice uterus weight” value (mouse uterus [4]; [10]) was 16%. For the same compound, the “effect with medroxyprogesterone acetate at higher doses (in words)” value (mouse uterus [4]; higher doses, together with medroxyprogesterone acetate) was “an antiprogestanic effect was achieved”, the “antiprogestanic / synergistic effect with medroxyprogesterone acetate (in words)” value (mouse uterus [4]; [11]) was “neither synergism nor inhibition of medroxyprogesterone acetate was seen” and the IC50 [5] was 1000 to 5000 nM. The “decrease in the weight of mouse uterus together with medroxyprogesterone acetate” value (mouse uterus [8]) was 16%.
